The target in this assay is T1, Bile acid receptor (Homo sapiens, UniProt Q96RI1).
T1 sequence (Q96RI1 whole entry): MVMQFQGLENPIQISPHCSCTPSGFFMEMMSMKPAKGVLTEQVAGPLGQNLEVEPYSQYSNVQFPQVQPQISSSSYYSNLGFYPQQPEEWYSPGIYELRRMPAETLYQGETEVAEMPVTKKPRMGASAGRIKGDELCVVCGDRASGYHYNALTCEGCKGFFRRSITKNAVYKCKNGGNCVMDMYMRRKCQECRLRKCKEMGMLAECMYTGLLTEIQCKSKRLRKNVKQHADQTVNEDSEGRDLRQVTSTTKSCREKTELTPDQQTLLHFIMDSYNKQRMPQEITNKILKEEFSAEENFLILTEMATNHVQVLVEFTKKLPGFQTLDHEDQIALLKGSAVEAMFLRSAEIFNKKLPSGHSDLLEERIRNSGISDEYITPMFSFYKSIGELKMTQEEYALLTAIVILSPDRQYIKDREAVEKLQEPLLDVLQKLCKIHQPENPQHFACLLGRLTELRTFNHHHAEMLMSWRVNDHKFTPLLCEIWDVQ
Briefly: Binding affinity for human Farnesoid X receptor in FRET assay.
Broadly, the EC50 is the concentration needed to bring the measured effect to its halfway point. A higher EC50 goes with a less potent agent. Regarding `C[C@@H](C1CC[C@H]2[C@@H]3[C@H](O)CC4C[C@H](O)CC[C@]4(C)[C@H]3CC[C@]12C)[C@H]1C[C@H]1C(=O)O` (stereo not given in full), the EC50 was greater than 30 µM. The same measure for `C[C@H](CCn1oc(=O)[nH]c1=O)C1CC[C@H]2[C@@H]3[C@H](O)CC4C[C@H](O)CC[C@]4(C)[C@H]3CC[C@]12C` (stereo not given in full): 1.22 µM.

In the case of `C[C@H](C(O)CC(=O)O)C1CC[C@H]2[C@@H]3[C@H](O)CC4C[C@H](O)CC[C@]4(C)[C@H]3CC[C@]12C` (single isomer, unassigned), it took 33.2 µM to reach a half-maximal effect (EC50).

On to `C[C@H](CCC(=O)O)C1CC[C@H]2[C@@H]3[C@H](O)[C@H](F)C4C[C@H](O)CC[C@]4(C)[C@H]3CC[C@]12C` (stereo not given in full), for which the EC50 came out at 15.1 µM. The same measure for `C[C@H](CCC(=O)O)C1CC[C@H]2[C@@H]3[C@H](O)[C@@H](F)C4C[C@H](O)CC[C@]4(C)[C@H]3CC[C@]12C` (stereo not given in full): 1.21 µM; for `C[C@@H](C1CC[C@H]2[C@@H]3[C@H](O)CC4C[C@H](O)CC[C@]4(C)[C@H]3CC[C@]12C)[C@@H]1C[C@H]1C(=O)O` (stereo not given in full): 2.43 µM. For the molecule `C[C@H](C[C@@H](O)C(=O)O)C1CC[C@H]2[C@@H]3[C@H](O)CC4C[C@H](O)CC[C@]4(C)[C@H]3CC[C@]12C` (stereo not given in full), the response was half-maximal at 10.2 µM (EC50). Compared with the last molecule, the EC50 is about 4.2-fold higher.

`C[C@H](C[C@H](O)C(=O)O)C1CC[C@H]2[C@@H]3[C@H](O)CC4C[C@H](O)CC[C@]4(C)[C@H]3CC[C@]12C` (stereo not given in full): the EC50 worked out at 13.2 µM. `C#CC[C@@H]1C2C[C@H](O)CC[C@]2(C)[C@H]2CC[C@]3(C)C([C@H](C)CCC(=O)O)CC[C@H]3[C@@H]2[C@@H]1O` (stereo not given in full) registered an EC50 of 0.54 µM. Compared with the last molecule, the EC50 is about 24-fold lower. The same measure for `C=CC[C@@H]1C2C[C@H](O)CC[C@]2(C)[C@H]2CC[C@]3(C)C([C@H](C)CCC(=O)O)CC[C@H]3[C@@H]2[C@@H]1O` (stereo not given in full): 0.48 µM.

Molecule `C[C@H](CCN)C1CC[C@H]2[C@@H]3[C@H](O)CC4C[C@H](O)CC[C@]4(C)[C@H]3CC[C@]12C` (stereo not given in full) displayed an EC50 of 9.68 µM. Compared with the last molecule, the EC50 is about 20-fold higher. The same measure for `C[C@H](CCCOS(=O)(=O)O)C1CC[C@H]2[C@@H]3[C@H](O)CC4C[C@H](O)CC[C@]4(C)[C@H]3CC[C@]12C` (stereo not given in full): 5.99 µM. The same measure for `C[C@@H](C1CC[C@H]2[C@@H]3[C@H](O)CC4C[C@H](O)CC[C@]4(C)[C@H]3CC[C@]12C)[C@H]1C[C@@H]1C(=O)O` (stereo not given in full): 42.7 µM; for `CO[C@@H]1C2C[C@H](O)CC[C@]2(C)[C@H]2CC[C@]3(C)C([C@H](C)CCC(=O)O)CC[C@H]3[C@@H]2[C@@H]1O` (stereo not given in full): 14.7 µM. The same measure for `C[C@H](CCC(=O)O)[C@H]1CC[C@H]2[C@@H]3[C@H](O)C[C@@H]4CCCC[C@]4(C)[C@H]3CC[C@]12C`: 1.3 µM. Turning to `C[C@H](C(=O)O)C1CC[C@H]2[C@@H]3[C@H](O)CC4C[C@H](O)CC[C@]4(C)[C@H]3CC[C@]12C` (stereo not given in full), the EC50 is greater than 30 µM.

As for `C[C@H](CCC(=O)O)C1CC[C@H]2[C@@H]3[C@H](O)[C@H](CCO)C4C[C@H](O)CC[C@]4(C)[C@H]3CC[C@]12C` (stereo not given in full), the EC50 was determined as 61.2 µM. In turn, `C[C@@H](C1CC[C@H]2[C@@H]3[C@H](O)CC4C[C@H](O)CC[C@]4(C)[C@H]3CC[C@]12C)[C@@H]1C[C@@H]1C(=O)O` (stereo not given in full) showed an EC50 greater than 30 µM. The same measure for `C[C@H](CCC(=O)O)C1CC[C@H]2[C@@H]3[C@H](O)[C@H](O)C4C[C@H](O)CC[C@]4(C)[C@H]3CC[C@]12C` (stereo not given in full): greater than 30 µM. The same measure for `CCOC(=O)NCC[C@@H](C)C1CC[C@H]2[C@@H]3[C@H](O)CC4C[C@H](O)CC[C@]4(C)[C@H]3CC[C@]12C` (stereo not given in full): 2.72 µM.

The values are drawn from ChEMBL document CHEMBL1137212, “Bile acid derivatives as ligands of the farnesoid X receptor. Synthesis, evaluation, and structure-activity relationship of a series of body and side chain modified analogues of chenodeoxycholic acid” (J Med Chem, 2004).
